According to ChEMBL document CHEMBL4715815, “Design, synthesis and biological evaluation of 7H-pyrrolo[2,3-d]pyrimidin-4-amine derivatives as selective Btk inhibitors with improved pharmacokinetic properties for the treatment of rheumatoid arthritis” (Eur J Med Chem, 2018):
Converted amounts (≈) assume the structure as drawn. The source made the active and inactive calls. No cut-off for these calls is given here.

Experiments:
[1] = system: HEK293; assay: Cytotoxicity against human HEK293 cells assessed as reduction in cell viability incubated for 72 hrs by MTT assay; format: ADME, cell-based; conditions: HEK293, 72 h
[2] = system: L02; assay: Cytotoxicity against human L02 cells assessed as reduction in cell viability incubated for 72 hrs by MTT assay; format: ADME, cell-based; conditions: L02, 72 h
[3] = system: THP-1; assay: Cytotoxicity against human THP-1 cells assessed as reduction in cell viability incubated for 72 hrs by MTT assay; format: ADME, cell-based; conditions: THP-1, 72 h
[4] = Aqueous solubility of compound at 1 mg; conditions: aqueous medium
[5] = Inhibition of recombinant human PI3K using PIP2 as substrate incubate for 15 mins by LANCE assay
[6] = system: Mus musculus; assay: Antiarthritic activity in DBA/1J mouse model of collagen-induced arthritis at 20 mg/kg, po administered for 30 days and measured on day 30; format: functional, organism-based; conditions: time 30.0 day
[7] = molecular target: Tyrosine-protein kinase BTK (Homo sapiens, UniProt Q06187); assay: Inhibition of BTK (unknown origin) by caliper mobility shift assay
Sequence of Tyrosine-protein kinase BTK (Q06187 whole entry): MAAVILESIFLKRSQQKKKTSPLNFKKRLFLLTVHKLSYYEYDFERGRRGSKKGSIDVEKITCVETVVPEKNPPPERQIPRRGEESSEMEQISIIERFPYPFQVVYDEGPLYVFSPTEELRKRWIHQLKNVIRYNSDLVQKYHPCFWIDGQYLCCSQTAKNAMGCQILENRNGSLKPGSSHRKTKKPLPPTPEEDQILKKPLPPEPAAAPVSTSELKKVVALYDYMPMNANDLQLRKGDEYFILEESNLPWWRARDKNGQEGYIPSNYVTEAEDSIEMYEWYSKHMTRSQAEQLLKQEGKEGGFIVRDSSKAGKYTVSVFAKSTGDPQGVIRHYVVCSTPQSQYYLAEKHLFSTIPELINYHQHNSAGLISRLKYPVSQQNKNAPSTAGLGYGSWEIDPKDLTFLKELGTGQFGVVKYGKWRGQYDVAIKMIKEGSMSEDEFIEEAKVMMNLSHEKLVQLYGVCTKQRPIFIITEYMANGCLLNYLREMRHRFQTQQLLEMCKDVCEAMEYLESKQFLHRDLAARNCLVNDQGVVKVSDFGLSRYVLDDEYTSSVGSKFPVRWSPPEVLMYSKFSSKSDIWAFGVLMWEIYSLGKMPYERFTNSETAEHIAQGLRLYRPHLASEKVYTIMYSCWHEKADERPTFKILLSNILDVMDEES

Row | SMILES | IC50 [1] | IC50 [2] | IC50 [3] | solubility [4] | IC50 [5] | Activity [6] | IC50 [7]
1 | C=CC(=O)N1CCC(CCn2cc(-c3ccc(Oc4ccccc4)cc3)c3c(N)ncnc32)CC1 | 10.2 µM | 15.2 µM | 18.9 µM | < 10 µg/mL |  |  | 
2 | CN(C)C/C=C/C(=O)N1CCC(Cn2cc(-c3ccc4c(c3)OCO4)c3c(N)ncnc32)CC1 |  |  |  | < 100 µg/mL |  |  | 
3 | C=CC(=O)N1CCCC(Cn2cc(-c3ccc4c(c3)OCO4)c3c(N)ncnc32)C1 (single isomer, unassigned; form 1) |  |  |  | 100 µg/mL (≈ 247 µM) |  |  | 
4 | C=CC(=O)N1CCC(CCn2cc(-c3ccc4c(c3)OCO4)c3c(N)ncnc32)CC1 |  |  |  | < 100 µg/mL |  |  | 
5 | C=CC(=O)N1CCC(Cn2nc(-c3ccc(Oc4ccccc4)cc3)c3c(N)ncnc32)CC1 | 11.2 µM | 10.9 µM | 15.7 µM | < 10 µg/mL |  |  | 
6 | C=CC(=O)N1CCCC(Cn2cc(-c3ccc(Oc4ccccc4)cc3)c3c(N)ncnc32)C1 (single isomer, unassigned; form 1) | 2.9 µM | 11.7 µM | 8.8 µM | < 10 µg/mL |  |  | 
7 | CN(C)C/C=C/C(=O)N1CCC(Cn2cc(-c3ccc(Oc4ccccc4)cc3)c3c(N)ncnc32)CC1 | 4.8 µM | 6.6 µM | 3.2 µM | < 10 µg/mL |  |  | 
8 | C=CC(=O)N1CCC[C@@H](n2nc(-c3ccc(Oc4ccccc4)cc3)c3c(N)ncnc32)C1 [IBRUTINIB] | 19.3 µM | 17.4 µM | 20.1 µM | < 10 µg/mL | > 10 µM | Active | 
9 | C=CC(=O)N1CCCC(Cn2cc(-c3ccc(Oc4ccccc4)cc3)c3c(N)ncnc32)C1 (single isomer, unassigned; form 2) | 1.3 µM | 14.2 µM | 10.7 µM | < 10 µg/mL |  |  | 
10 | C=CS(=O)(=O)N1CCC(Cn2cc(-c3ccc4c(c3)OCO4)c3c(N)ncnc32)CC1 | 2.5 µM | 3.2 µM | 3.7 µM | 100 µg/mL (≈ 226 µM) |  |  | 
11 | C=CC(=O)N1CCC(Cn2cc(-c3ccc(Oc4ccccc4)cc3)c3c(N)ncnc32)CC1 | 13.3 µM | 16 µM | 16.7 µM | < 10 µg/mL |  |  | 0.00609 µM
12 | C=CC(=O)N1CCC(Cn2nc(-c3ccc4c(c3)OCO4)c3c(N)ncnc32)CC1 |  |  |  | 100 µg/mL (≈ 246 µM) |  |  | 
13 | C=CC(=O)N1CCC(Cn2cc(-c3ccc(OCc4ccccc4)cc3)c3c(N)ncnc32)CC1 |  |  |  | < 10 µg/mL |  |  | 0.077 µM
14 | C=CC(=O)N1CCCC(Cn2cc(-c3ccc4c(c3)OCO4)c3c(N)ncnc32)C1 (single isomer, unassigned; form 2) |  |  |  | 100 µg/mL (≈ 247 µM) |  |  | 
15 | C=CS(=O)(=O)N1CCC(Cn2nc(-c3ccc4c(c3)OCO4)c3c(N)ncnc32)CC1 | 2.8 µM | 10.1 µM | 14.4 µM | 100 µg/mL (≈ 226 µM) |  |  | 
16 | C=CS(=O)(=O)N1CCC(Cn2cc(-c3ccc(Oc4ccccc4)cc3)c3c(N)ncnc32)CC1 | 2.7 µM | 3.2 µM | 3.3 µM | < 10 µg/mL |  |  | 
17 | C=CS(=O)(=O)N1CCC(Cn2nc(-c3ccc(Oc4ccccc4)cc3)c3c(N)ncnc32)CC1 | 1.6 µM | 19.1 µM | 18.3 µM | < 10 µg/mL |  |  | 
